Results: patent US20200345862A1, “TRANSITION METAL-BASED FUNCTIONAL MOIETIES FOR PREPARING CELL TARGETING CONJUGATES” (priority 2017, published 2020)
Where two headings read alike, the source gives them in different places.

Details: HEPES pH 8.1, 47° C., 4 h
Experimental: To a mixture of water (101 μL) and 200 mM HEPES buffer (12.3 μL, pH 8.1) containing different concentrations of halide salts (0, 100, 500, 1000, and 2000 mM NaCl (for 4a; pH 8.1; the final concentrations of NaCl in the reaction mixtures were 0, 10, 50, 100, and 200 mM, respectively) or 0, 100, and 500 mM NaBr (for 5d; pH 8.1; the final concentrations of NaBr in the reaction mixtures were 0, 10, and 50 mM, respectively) or 0 and 100 mM NaI (for 6k; pH 8.1; the final concentrations of NaI in the reaction mixtures were 0 and 10 mM, respectively), [PtL2((Fe)DFO-suc-pip)(ethane-1,2-diamine)]^+ TFA^− (4a (L2=Cl), 5d (L2=Br) or 6k (L2=I)) (10.0 μL, 5 mM in 20 mM NaCl (4a) or 5 mM in water (5d and 6k), 5.0 eq.) was added. The samples were incubated in a thermoshaker at 47° C. for 1 h, 2 h, and 4 h, followed by the HPLC analysis at 430 nm.

Substance | concentration of the semi-final product after incubation (stability) ([NaBr]=50 mM, FIG. 5) [%] | concentration of the semi-final product after incubation (stability) ([NaI]=10 mM, FIG. 6) [%]
[(Fe)DFO-pip-PtBr(ethane-1,2-diamine)]^+ TFA^− [5d] | 95 | 
[Pt((Fe)DFO-suc-pip)(ethane-1,2-diamine)I]^+ TFA^− [6k] |  | 98
